We go through seven molecules from US5484911A, “Nucleoside 5'-diphosphate conjugates of ether lipids” (Health Research, Inc., priority 1993, dated 1996).

Read-outs that look alike come from different tables or passages of the source.

The nature of series [1]: Cytotoxicity to uninfected CEM cells (toxicity control of the anti-HIV assay). To be noted: human; for CC50: CEM cells, read-out: cytotoxicity (IC50); for CC50 at 144 h: uninfected CEM-IW cells, 6 days, XTT, Tables 1-4, read-out: 1C50(Molar) (cytotoxicity). The format is cell-based. An excerpt: (§1) FIG. 3. Anti-HIV activity of AZTDP-DL-PTBA from the National Cancer Institute Developmental Therapeutics Program In-Vitro Testing Results; NSC 648540-S/1; Plate 5440; Lab 9N; SSPL:129N; Primary Screen Assay; Test Date, Jan. 21, 1992; Solubility Ind.: 1; Report Date, Apr. 27, 1992; Cell Line, CEM-IW; Solvent: Saline<0.9% (MEDIA).
(§2) FIG. 4. Anti-HIV activity of AZddUDP-DL-PTBA from the National Cancer Institute Developmental Therapeutics Program In-Vitro Testing Results; NSC: 648541-T/1; Plate 5466; Lab 9N; SSPL: 129N; Primary Screen Assay; Test Date, Jan. 21, 1992; Solubility Ind.: 1; Report Date, Apr. 27, 1992; Cell Line: CEM-IW; Solvent: Saline<0.9% (MEDIA).
(§3) FIG. 5. Anti-HIV activity of ddCDP-DL-PTBA from the National Cancer Institute Developmental Therapeutic Program In-Vitro Testing Results; NSC: D- 652872-A/1; Plate 24; Lab 9N; Primary Screen Assay; Test Date, Jul. 23, 1992; Solubility Ind.: 1; Report Date: Aug. 7, 1992; Cell Line: CEM-IW; Solvent: Saline<0.9% (MEDIA).
(§4) FIG. 6. Anti-HIV activity of AZTDP-DL-PMA from the National Cancer Institute Developmental Therapeutics Program In-Vitro Testing Results; NSC: D- 652873-C/1; Plate 24; Lab 9N; SSPL: 129N; Primary Screen Assay; Test Date, Jul. 23, 1992; Solubility Ind.: 1; Report Date, Sep. 11, 1992; Cell Line: CEM-IW; Solvent: Saline<0.9% (MEDIA).
(§5) The procedure is designed to detect agents acting at any stage of the virus reproductive cycle (Weislow, et al., J. Natl. Cancer Inst. 81, 577, 1989). The assay basically involves the killing of T4 lymphocytes by HIV. Small amounts of HIV are added to cells, and a complete cycle of virus reproduction is necessary to obtain the required cell killing. Agents that interact with virions, cells, or virus gene-products to interfere with viral activities will protect cells from cytolysis. Compounds that degenerate or are rapidly metabolized in the culture conditions may not show activity in this screen. All tests are compared with at least one positive (e.g., AZT-treated) control done at the same time under identical conditions.
(§6) Compound was dissolved in DMSO then diluted 1:100 in cell culture medium before preparing serial half-log10 dilutions. T4 lymphocytes (CEM cell line) were added and after a brief interval HIV-1 was added, resulting in a 1:200 final dilution of the compound. Uninfected cells with the compound served as a toxicity control, and infected and uninfected without the compound served as basic controls. Cultures were incubated at 37° C. in a 5% CO2 atmosphere for 6 days. The tetrazolium salt, XTT, was added to the wells, and cultures were incubated to allow formazan color development by viable cells. Individual wells were analyzed spectrophotometrically to quantitate formazan production, and in addition were viewed microscopically for detection of viable cells and confirmation of protective activity. Drug-treated virus-infected cells were compared with drug-treated noninfected cells and with other appropriate controls (untreated infected and untreated noninfected cells, drug-containing wells without cells, etc.) on the same plate. Data were reviewed in comparison with other tests done at the same time and a determination about activity was made.

The test system of a further series is HIV-1. Briefly: microbe, parasite or virus in culture. The format is cell-based. To be noted: for Conclusion: NCI screen conclusion, Tables 1-4; for conclusion / reported as anti-HIV drug: NCI screening results.
Source text: as §1, §2, §3, §4
Anti-HIV evaluation for the compounds was performed at the National Cancer Institute, National Institute of Health and is presented in FIGS. 3-6.
as §5, §6

The test system of another series is HIV-infected U937. To be noted: liposomal, range over the compounds named, read-out: IC50, antiretroviral activity; cited from earlier work.
The next series concerns HIV-infected CEM cells. To be noted: liposomal, range over the compounds named, read-out: IC50, antiretroviral activity; cited from earlier work.
Where [2] appears, read: Human immunodeficiency virus 1, CCRF-CEM, read-out: 50% of the protection (EC50).
Where [3] appears, read: Human immunodeficiency virus 1, CCRF-CEM, 144 h, read-out: EC50(Molar).

In general, EC50 refers to the midpoint of the concentration-response curve. For the molecule `CCCCCCCCCCCCCCCC(=O)OC(COCCCCCCCCCCCCCC)COP(=O)(O)OP(=O)(O)OC[C@H]1O[C@@H](n2cc(C)c(=O)[nH]c2=O)C[C@@H]1N=[N+]=[N-]` (mixture of isomers) [AZTDP-DL-PMA, 3'-Azido-3'-deoxythymidine-5'-diphosphate-rac-1-O-tetradecyl-2-O-palmitoylglycerol], the viability at 180 µM in series [1] (uninfected cem cells, dose 1.80 × 10^-4 Molar (Table 4), read-out: UNINFECTED RESPONSE Percent of Control) turned out to be 109%; in the series with HIV-1 (Human immunodeficiency virus 1, CCRF-CEM, dose 1.80 × 10^-4 Molar (Table 4), read-out: INFECTED RESPONSE Percent of Control), 66.8%. Moreover, the viability at 570 µM in series [1] (uninfected cem cells, dose 5.70 × 10^-4 Molar (Table 4), read-out: UNINFECTED RESPONSE Percent of Control) came out at 109%; with HIV-1 (Human immunodeficiency virus 1, CCRF-CEM, dose 5.70 × 10^-4 Molar (Table 4), read-out: INFECTED RESPONSE Percent of Control), 90.7%. The viability at 57 µM turned out to be 114% in series [1] (uninfected cem cells, dose 5.70 × 10^-5 Molar (Table 4), read-out: UNINFECTED RESPONSE Percent of Control) and 55.8% in the series on HIV-1 (Human immunodeficiency virus 1, CCRF-CEM, dose 5.70 × 10^-5 Molar (Table 4), read-out: INFECTED RESPONSE Percent of Control). Further, the CC50 in series [1] came out at 14000 µM. In addition, in series [1], the CC50 at 144 h was found to be 14000 µM. In addition, in the series with HIV-1 (setting [2]), the EC50 turned out to be 57 µM. Besides, the Conclusion entry with HIV-1 was “CONFIRMED ACTIVE”. Besides, the “conclusion / reported as anti-HIV drug” value with HIV-1 is recorded as “moderate”.
For orientation: IC50 means the concentration at which inhibition is half-maximal. In the case of `CCCCCCCCCCCCCC(=O)OCC(COP(=O)(O)OC[C@@H]1CC[C@H](n2ccc(N)nc2=O)O1)OC(=O)CCCCCCCCCCCCC` (stereo partly shown) [dimyristoylphosphatidylddC], the IC50 in the series with HIV-infected U937 was 0.2 to 12 µM; in the series on HIV-infected CEM cells, 1.7 to 22 µM.
For the molecule `CCCCCCCCCCCCCC(=O)OCC(COP(=O)(O)OC[C@@H]1CC[C@H](n2cc(C)c(=O)[nH]c2=O)O1)OC(=O)CCCCCCCCCCCCC` (stereo partly shown) [dimyristoylphosphatidylddT], the figures for the IC50 in the series with HIV-infected U937 and in the series on HIV-infected CEM cells were 0.2 to 12 µM and 1.7 to 22 µM, respectively.
`CCCCCCCCCCCCCCCCCCSCC(COP(=O)(O)OP(=O)(O)OC[C@@H]1CC[C@H](n2ccc(N)nc2=O)O1)OC(=O)CCCCCCCCCCCCCCC` (mixture of isomers) [ddCDP-DL-PTBA, 2',3'-Dideoxycytidine-5'-diphosphate-rac-1-S-octadecyl-2-O-palmitoyl-1-thioglycerol]: the viability at 200 µM is 137% in series [1] (uninfected cem cells, dose 2.00 × 10^-4 Molar (Table 3), read-out: UNINFECTED RESPONSE Percent of Control) and 78% with HIV-1 (Human immunodeficiency virus 1, CCRF-CEM, dose 2.00 × 10^-4 Molar (Table 3), read-out: INFECTED RESPONSE Percent of Control). The viability at 630 µM in series [1] (uninfected cem cells, dose 6.30 × 10^-4 Molar (Table 3), read-out: UNINFECTED RESPONSE Percent of Control) was found to be 125%; in the series with HIV-1 (Human immunodeficiency virus 1, CCRF-CEM, dose 6.30 × 10^-4 Molar (Table 3), read-out: INFECTED RESPONSE Percent of Control), 98.7%. Also, the viability at 63 µM in series [1] (uninfected cem cells, dose 6.30 × 10^-5 Molar (Table 3), read-out: UNINFECTED RESPONSE Percent of Control) came to 130%; in the series on HIV-1 (Human immunodeficiency virus 1, CCRF-CEM, dose 6.30 × 10^-5 Molar (Table 3), read-out: INFECTED RESPONSE Percent of Control), 10.2%. In series [1], the CC50 was found to be 2800 µM. Further, in series [1], the CC50 at 144 h worked out at 2800 µM. For the same molecule, the concentration giving a half-maximal response (EC50) with HIV-1 (setting [3]) and in the series with HIV-1 (setting [2]) was 130 µM each time. In addition, the Conclusion result in the series on HIV-1 is “CONFIRMED ACTIVE”. The “conclusion / reported as anti-HIV drug” value with HIV-1 is given as “moderate”. Moreover, the “TI50(IC/EC)” value with HIV-1 (ratio IC50/EC50, Tables 2-3) is listed as 2.10 × 10^+1.
As for AZT dipalmitoylglycerol, the figures for the IC50 in the series with HIV-infected U937 and with HIV-infected CEM cells were 0.2 to 12 µM and 1.7 to 22 µM, respectively.
`CCCCCCCCCCCCCC(=O)OCC(COP(=O)(O)OC[C@H]1O[C@@H](n2cc(C)c(=O)[nH]c2=O)C[C@@H]1N=[N+]=[N-])OC(=O)CCCCCCCCCCCCC` (stereo partly shown) [Dimyristoyl-phosphatidylAZT]: the IC50 in the series with HIV-infected U937 is 0.2 to 12 µM; with HIV-infected CEM cells, 1.7 to 22 µM.
Take `CCCCCCCCCCCCCCCCCCSCC(COP(=O)(O)OP(=O)(O)OC[C@H]1O[C@@H](n2ccc(=O)[nH]c2=O)C[C@@H]1N=[N+]=[N-])OC(=O)CCCCCCCCCCCCCCC` (mixture of isomers) [AZddUDP-DL-PTBA, 3'-Azido-2',3'-dideoxyuridine-5'-diphosphate-rac-1-S-octadecyl-2-O-palmitoyl-1-thioglycerol]: the viability at 180 µM in series [1] (uninfected cem cells, dose 1.80 × 10^-4 Molar (Tables 1, 2), read-out: UNINFECTED RESPONSE Percent of Control) was 138%; in the series on HIV-1 (Human immunodeficiency virus 1, CCRF-CEM, dose 1.80 × 10^-4 Molar (Tables 1, 2), read-out: INFECTED RESPONSE Percent of Control) it was 103%. In addition, the viability at 18 µM in series [1] (uninfected cem cells, dose 1.80 × 10^-5 Molar (Tables 1, 2), read-out: UNINFECTED RESPONSE Percent of Control) is 98.6%; in the series on HIV-1 (Human immunodeficiency virus 1, CCRF-CEM, dose 1.80 × 10^-5 Molar (Tables 1, 2), read-out: INFECTED RESPONSE Percent of Control), 11.1%. Besides, the viability at 1.8 µM in series [1] (uninfected cem cells, dose 1.80 × 10^-6 Molar (Tables 1, 2), read-out: UNINFECTED RESPONSE Percent of Control) was 96.6%; in the series with HIV-1 (Human immunodeficiency virus 1, CCRF-CEM, dose 1.80 × 10^-6 Molar (Tables 1, 2), read-out: INFECTED RESPONSE Percent of Control) it was 4.68%. Further, the viability at 580 µM in series [1] (uninfected cem cells, dose 5.80 × 10^-4 Molar (Tables 1, 2), read-out: UNINFECTED RESPONSE Percent of Control) came out at 5.01%; with HIV-1 (Human immunodeficiency virus 1, CCRF-CEM, dose 5.80 × 10^-4 Molar (Tables 1, 2), read-out: INFECTED RESPONSE Percent of Control) it was 7.96%. Further, the viability at 58 µM amounted to 107% in series [1] (uninfected cem cells, dose 5.80 × 10^-5 Molar (Tables 1, 2), read-out: UNINFECTED RESPONSE Percent of Control) and 50.6% in the series on HIV-1 (Human immunodeficiency virus 1, CCRF-CEM, dose 5.80 × 10^-5 Molar (Tables 1, 2), read-out: INFECTED RESPONSE Percent of Control). In addition, the viability at 5.8 µM came out at 94.6% in series [1] (uninfected cem cells, dose 5.80 × 10^-6 Molar (Tables 1, 2), read-out: UNINFECTED RESPONSE Percent of Control) and 6.2% in the series with HIV-1 (Human immunodeficiency virus 1, CCRF-CEM, dose 5.80 × 10^-6 Molar (Tables 1, 2), read-out: INFECTED RESPONSE Percent of Control). The viability at 0.58 µM in series [1] (uninfected cem cells, dose 5.80 × 10^-7 Molar (Tables 1, 2), read-out: UNINFECTED RESPONSE Percent of Control) came out at 94.6%; in the series with HIV-1 (Human immunodeficiency virus 1, CCRF-CEM, dose 5.80 × 10^-7 Molar (Tables 1, 2), read-out: INFECTED RESPONSE Percent of Control) it was 2.69%. Moreover, in series [1], the CC50 came out at 390 µM. The CC50 at 144 h in series [1] came out at 590 µM. Further, the EC50 in the series with HIV-1 (setting [3]) and with HIV-1 (setting [2]) was 59 µM each time. Moreover, in the series on HIV-1, the Conclusion result is “CONFIRMED ACTIVE”. Further, the “conclusion / reported as anti-HIV drug” value in the series with HIV-1 was “moderate”.
